Results taken from PubChem BioAssay AID2060485 (Molecular Pharmacology Branch, DTP, NCI, 2025).

System: A375 multi-cell spheroids with HUVEC/MSC, viability
Experiment: Anticancer human tumor A375 cell line growth inhibition [GQUAD];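 also: spheroids exposed to compounds for seven days before readout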
Details: for IC50: curve of first compound; for viability, T/C: stronger effect = lower value; active = viability on the fitted dose curve at most 10% of control; inactive = the rest
Outline: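 Multi-cell-type spheroids of tumor cells with HUVEC and mesenchymal stem cells, treated with drug combinations. Concentrations descend in half-log steps from near clinical Cmax, or from 10 microM where Cmax is unknown; viability read-out.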

[1] = second compound 0.0316 µM, first compound 0.0316 µM
[2] = second compound 0.0316 µM, first compound 0.316 µM
[3] = second compound 0.1 µM, first compound 0.0316 µM
[4] = second compound 0.1 µM, first compound 0.316 µM
[5] = second compound 0.316 µM, first compound 0.0316 µM
[6] = second compound 0.316 µM, first compound 0.316 µM
[7] = second compound 1 µM, first compound 0.0316 µM
[8] = second compound 1 µM, first compound 0.316 µM
[9] = second compound 3.16 µM, first compound 0.0316 µM
[10] = second compound 3.16 µM, first compound 0.316 µM
[11] = second compound 10 µM, first compound 0.0316 µM
[12] = second compound 10 µM, first compound 0.316 µM
[13] = second compound 0.0316 µM, first compound 0.000999 µM
[14] = second compound 0.0316 µM, first compound 0.00316 µM
[15] = second compound 0.0316 µM, first compound 0.00999 µM
[16] = second compound 0.0316 µM, first compound 0.0999 µM
[17] = second compound 0.1 µM, first compound 0.000999 µM
[18] = second compound 0.1 µM, first compound 0.00316 µM
[19] = second compound 0.1 µM, first compound 0.00999 µM
[20] = second compound 0.1 µM, first compound 0.0999 µM
[21] = second compound 0.316 µM, first compound 0.000999 µM
[22] = second compound 0.316 µM, first compound 0.00316 µM
[23] = second compound 0.316 µM, first compound 0.00999 µM
[24] = second compound 0.316 µM, first compound 0.0999 µM
[25] = second compound 1 µM, first compound 0.000999 µM
[26] = second compound 1 µM, first compound 0.00316 µM
[27] = second compound 1 µM, first compound 0.00999 µM
[28] = second compound 1 µM, first compound 0.0999 µM
[29] = second compound 3.16 µM, first compound 0.000999 µM
[30] = second compound 3.16 µM, first compound 0.00316 µM
[31] = second compound 3.16 µM, first compound 0.00999 µM
[32] = second compound 3.16 µM, first compound 0.0999 µM
[33] = second compound 10 µM, first compound 0.000999 µM
[34] = second compound 10 µM, first compound 0.00316 µM
[35] = second compound 10 µM, first compound 0.00999 µM
[36] = second compound 10 µM, first compound 0.0999 µM

C=CC(=O)N1CCN(c2nc(=O)n(-c3c(C)ccnc3C(C)C)c3nc(-c4c(O)cccc4F)c(F)cc23)C(C)C1 (stereo unspecified) + Cc1cnc(CNC(=O)c2c(=O)c3ccc(N4CCCN(C)CC4)nc3n3c2sc2ccccc23)cn1
> 10000 nM: IC50 (second compound 0.0316 µM) | IC50 (second compound 0.1 µM) | IC50 (second compound 0.316 µM)
< 31.6 nM: IC50 (second compound 1 µM) | IC50 (second compound 3.16 µM) | IC50 (second compound 10 µM)
inactive: viability, T/C [1] 94.5% | viability, T/C (second compound 0.0316 µM, first compound 0.1 µM) 103% | viability, T/C [2] 109% | viability, T/C (second compound 0.0316 µM, first compound 1 µM) 106% | viability, T/C (second compound 0.0316 µM, first compound 3.16 µM) 145% | viability, T/C (second compound 0.0316 µM, first compound 10 µM) 129% | viability, T/C [3] 86.7% | viability, T/C (second compound 0.1 µM, first compound 0.1 µM) 77.3% | viability, T/C [4] 92.9% | viability, T/C (second compound 0.1 µM, first compound 1 µM) 82.3% | viability, T/C (second compound 0.1 µM, first compound 3.16 µM) 95% | viability, T/C (second compound 0.1 µM, first compound 10 µM) 83.2% | viability, T/C [5] 51.6% | viability, T/C (second compound 0.316 µM, first compound 0.1 µM) 56.6% | viability, T/C [6] 55.4% | viability, T/C (second compound 0.316 µM, first compound 1 µM) 57% | viability, T/C (second compound 0.316 µM, first compound 3.16 µM) 59.2% | viability, T/C (second compound 0.316 µM, first compound 10 µM) 58% | viability, T/C [7] 42.4% | viability, T/C (second compound 1 µM, first compound 0.1 µM) 47.9% | viability, T/C [8] 48.8% | viability, T/C (second compound 1 µM, first compound 1 µM) 48.6% | viability, T/C (second compound 1 µM, first compound 3.16 µM) 45.1% | viability, T/C (second compound 1 µM, first compound 10 µM) 40.2% | viability, T/C [9] 34.9% | viability, T/C (second compound 3.16 µM, first compound 0.1 µM) 32.5% | viability, T/C [10] 32.7% | viability, T/C (second compound 3.16 µM, first compound 1 µM) 36.4% | viability, T/C (second compound 3.16 µM, first compound 3.16 µM) 37.6% | viability, T/C (second compound 3.16 µM, first compound 10 µM) 34.1% | viability, T/C [11] 28.8% | viability, T/C (second compound 10 µM, first compound 0.1 µM) 32.9% | viability, T/C [12] 33% | viability, T/C (second compound 10 µM, first compound 1 µM) 33.5% | viability, T/C (second compound 10 µM, first compound 3.16 µM) 31.6% | viability, T/C (second compound 10 µM, first compound 10 µM) 28.5%

CC[C@@]1(O)C(=O)OCc2c1cc1n(c2=O)Cc2cc3c(CN(C)C)c(O)ccc3nc2-1 + Cc1cnc(CNC(=O)c2c(=O)c3ccc(N4CCCN(C)CC4)nc3n3c2sc2ccccc23)cn1
16 nM: IC50 (second compound 0.1 µM)
inactive: viability, T/C [13] 114% | viability, T/C [14] 103% | viability, T/C [15] 107% | viability, T/C [1] 44.1% | viability, T/C [16] 17.8% | viability, T/C [2] 11.3% | viability, T/C [17] 76.2% | viability, T/C [18] 64.3% | viability, T/C [19] 64.3% | viability, T/C [3] 31.4% | viability, T/C [20] 20.5% | viability, T/C [4] 11.8% | viability, T/C [21] 48.6% | viability, T/C [22] 42.5% | viability, T/C [23] 45.3% | viability, T/C [5] 27.6% | viability, T/C [24] 17% | viability, T/C [6] 13.9% | viability, T/C [25] 39.8% | viability, T/C [26] 38.9% | viability, T/C [27] 29.9% | viability, T/C [7] 29.1% | viability, T/C [28] 19.1% | viability, T/C [8] 13% | viability, T/C [29] 30.5% | viability, T/C [30] 29.8% | viability, T/C [31] 30.3% | viability, T/C [9] 25.4% | viability, T/C [32] 17.6% | viability, T/C [10] 14.7% | viability, T/C [33] 23.6% | viability, T/C [34] 30.3% | viability, T/C [35] 30.8% | viability, T/C [11] 23.9% | viability, T/C [36] 18.7% | viability, T/C [12] 15.6%
< 0.999 nM: IC50 (second compound 0.316 µM) | IC50 (second compound 1 µM) | IC50 (second compound 3.16 µM) | IC50 (second compound 10 µM)
28.5 nM: IC50 (second compound 0.0316 µM)

CCc1c2c(nc3ccc(O)cc13)-c1cc3c(c(=O)n1C2)COC(=O)[C@]3(O)CC + Cc1cnc(CNC(=O)c2c(=O)c3ccc(N4CCCN(C)CC4)nc3n3c2sc2ccccc23)cn1
< 0.999 nM: IC50 (second compound 0.0316 µM) | IC50 (second compound 0.1 µM) | IC50 (second compound 0.316 µM) | IC50 (second compound 1 µM) | IC50 (second compound 3.16 µM) | IC50 (second compound 10 µM)
active: viability, T/C [1] 13.5% | viability, T/C [16] 5.18% | viability, T/C [2] 0.45% | viability, T/C [20] 5.86% | viability, T/C [4] 0.41% | viability, T/C [5] 11.9% | viability, T/C [24] 4.76% | viability, T/C [6] 0.14% | viability, T/C [7] 10.1% | viability, T/C [28] 4.05% | viability, T/C [8] 0.08% | viability, T/C [9] 9.47% | viability, T/C [32] 0.08% | viability, T/C [10] 0.1% | viability, T/C [11] 7.32% | viability, T/C [36] 0.15% | viability, T/C [12] 0.15%
inactive: viability, T/C [13] 33.5% | viability, T/C [14] 15.6% | viability, T/C [15] 15.1% | viability, T/C [17] 26.9% | viability, T/C [18] 14.8% | viability, T/C [19] 15.6% | viability, T/C [3] 15.2% | viability, T/C [21] 26.3% | viability, T/C [22] 17.1% | viability, T/C [23] 14.8% | viability, T/C [25] 22% | viability, T/C [26] 15.4% | viability, T/C [27] 14.2% | viability, T/C [29] 19.4% | viability, T/C [30] 15.9% | viability, T/C [31] 14.4% | viability, T/C [33] 18.4% | viability, T/C [34] 16% | viability, T/C [35] 14.6%
